{
  "source": "patent US20140045895A1",
  "about": "“PHARMACEUTICAL DEPOT FOR 5-FLUORO-2-[[(1S)-1-(5-FLUORO-2-PYRIDYL)ETHYL]AMINO]-6-[(5-ISOPROPOXY-1H-PYRAZOL-3-YL)AMINO]PYRIDINE-3-CARBONITRILE” (ASTRAZENECA AB, priority 2010, published 2014)",
  "key": {"[1]": {"assay": "Hydrolytic stability of PA in the acidic microclimate created by polymer degradation", "assay_type": "physicochemical"}, "[2]": {"assay": "Plasma levels after intra-articular injection of 50/50 PLGA formulation", "assay_type": "in vivo, rats", "settings": "200 μg dose in 50/50 PLGA IA formulation into knees, rat plasma", "description": "Animals were anaesthetised with isofluorane and 30 μl PLGA microspheres containing 200 μg injected into each knee using a Hamilton syringe and 25G needle. The vial of microspheres was vortexed before injection of each animal to try and obtain a homogeneous injection solution. Animals were recovered and returned to their home cages until plasma sampling.\nAnimals were warmed in a hot box for 10 minutes at 42° C. before being placed in a restrainer and 200 μl blood sampled from the lateral tail vein into a Sarsted Multivette 600 Lithium Heparin tube (cat no 15.1673) attached to a 21G needle. Tubes were placed on a roller until centrifugation at 13000 rpm for 5 minutes to sediment red blood cells. Plasma was decanted and stored at −20° C. until analysis by DMPK. Samples were taken 1 h, 3 h, 6 h, 24 h, 48 h, 96 h and 168 h post-injection.\nThe levels shown are for a 200 μg dose of compound."}},
  "data": [
    {"smiles": "CC(C)Oc1cc(Nc2nc(N[C@@H](C)c3ccc(F)cn3)c(C#N)cc2F)n[nH]1", "note": "[PA, 5-fluoro-2-[[(1S)-1-(5-fluoro-2-pyridyl)ethyl]amino]-6-[(5-isopropoxy-1H-pyrazol-3-yl)amino]pyridine-3-carbonitrile]", "values": [
      {"measurement": "hydrolytic stability in acidic microclimate", "setting": "[1]", "result": "hydrolytically stable"},
      {"measurement": "period over which release of compound was seen (plasma)", "setting": "[2]", "result": 168, "unit": "h"}
    ]}
  ]
}
